Results as given in patent US6924302B2, “Substituted triazole diamine derivatives as kinase inhibitors” (Ortho McNeil Pharmaceutical, Inc., priority 2000, dated 2005).
Read-outs that look alike come from different tables or passages of the source.

What was measured:
[1] = biological target: T1, Protein Kinase A (Bos taurus, UniProt P00517); test: Kinase Selectivity Assay Protein Kinase A; format: biochemical, bovine; settings: Kinase Selectivity, Tables 2a-2k; read-out: PKA IC50
T1 construct: purified from bovine heart; purchased Upstate Biotech 14-114; host or cells: bovine heart
Summary of the method: (§1)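 Reactions ran one hour at 30° C in 1% DMSO with enzyme diluted in 50 mM Tris-HCl pH 8.0, 0.1% BSA. Scintillation counting read ^33P incorporated into immobilized biotinylated peptide.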

[2] = biological target: T2, Casein Kinase 1 (CK1 delta isoform) (Rattus norvegicus, UniProt Q06486); test: Kinase Selectivity Assay Casein Kinase 1; format: biochemical; settings: Tables 2a-2k, read-out: Caseine Kinase 1 IC50
T2 construct: a truncation at amino acid 318 of the C-terminal portion of the rat CK1 delta isoform; purchased New England Biolabs 6030; host or cells: E. coli
T2 sequence (Q06486 1-317): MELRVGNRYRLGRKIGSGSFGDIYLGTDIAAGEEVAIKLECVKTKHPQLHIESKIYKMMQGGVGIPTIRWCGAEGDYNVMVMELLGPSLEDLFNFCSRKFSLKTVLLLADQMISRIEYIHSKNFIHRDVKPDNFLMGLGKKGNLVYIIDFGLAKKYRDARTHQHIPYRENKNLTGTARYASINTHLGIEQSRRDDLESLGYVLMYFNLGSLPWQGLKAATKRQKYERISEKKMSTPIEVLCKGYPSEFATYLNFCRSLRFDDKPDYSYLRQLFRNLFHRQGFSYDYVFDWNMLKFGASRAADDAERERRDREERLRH
Summary of the method: as §1

[3] = biological target: T3, CDK1:Cyclin-B (Homo sapiens, UniProt P06493); test: CDK1 Screening Assay; format: biochemical; settings: read-out: CDK1 IC50
T3 construct: purchased New England Biolabs 6020; host or cells: insect cells
Summary of the method: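 Human CDK1:cyclin-B (30 ng/well) with biotinylated histone-H1 peptide and ^33P-γ-ATP, 1 h at 30° C, 1% DMSO, on streptavidin FlashPlate; incorporation read by scintillation.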

[4] = Kinase Selectivity, Tables 2a-2k

T3 sequence (P06493 whole entry): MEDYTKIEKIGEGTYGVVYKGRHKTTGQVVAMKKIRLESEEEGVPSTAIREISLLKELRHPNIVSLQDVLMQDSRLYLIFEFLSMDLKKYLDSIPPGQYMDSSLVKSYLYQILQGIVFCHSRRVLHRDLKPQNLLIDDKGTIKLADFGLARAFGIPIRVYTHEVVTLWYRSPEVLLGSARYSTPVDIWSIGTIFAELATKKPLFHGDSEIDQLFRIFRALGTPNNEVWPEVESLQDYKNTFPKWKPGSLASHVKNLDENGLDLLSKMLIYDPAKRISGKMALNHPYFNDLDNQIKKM
T3 sequence (P14635 whole entry partner): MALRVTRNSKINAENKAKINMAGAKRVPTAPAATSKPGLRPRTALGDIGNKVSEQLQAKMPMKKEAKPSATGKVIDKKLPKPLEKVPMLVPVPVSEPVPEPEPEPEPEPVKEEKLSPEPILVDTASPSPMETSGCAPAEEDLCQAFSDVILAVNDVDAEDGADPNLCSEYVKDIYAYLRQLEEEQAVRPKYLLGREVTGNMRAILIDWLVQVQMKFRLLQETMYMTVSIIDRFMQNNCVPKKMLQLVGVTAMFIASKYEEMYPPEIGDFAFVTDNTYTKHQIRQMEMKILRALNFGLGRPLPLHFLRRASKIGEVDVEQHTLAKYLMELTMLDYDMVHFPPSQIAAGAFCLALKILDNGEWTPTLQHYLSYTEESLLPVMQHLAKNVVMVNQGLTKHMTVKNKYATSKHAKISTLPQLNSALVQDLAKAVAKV

| SMILES | IC50 [1] [nM] | IC50 [2] [nM] | IC50 [3, 4] [nM] | IC50 ([3]; Table 1) [nM] |
| --- | --- | --- | --- | --- |
| Cc1ccsc1C(=O)n1nc(Nc2ccc(S(=O)(=O)NCCN(C)C)cc2)nc1N [Cpd 104, 4-[[5-amino-1-[(3-methyl-2-thienyl)carbonyl]-1H-1,2,4-triazol-3-yl]amino]-N-[2-(dimethylamino)ethyl]-benzenesulfonamide] | > 100000 | 624 | 1.6 | 15.6 |
| Cc1ccsc1C(=O)n1nc(Nc2ccc(N3CCNC3=O)cc2)nc1N [Cpd 113, 1-[4-[[5-amino-1-[(3-methyl-2-thienyl)carbonyl]-1H-1,2,4-triazol-3-yl]amino]phenyl]-2-imidazolidinone] | > 100000 | 318 | 254 | 254 |
| Cc1ccsc1C(=O)n1nc(Nc2ccc(N3CCCS3(=O)=O)cc2)nc1N [Cpd 116, N^3-[4-(1,1-dioxido-2-isothiazolidinyl)phenyl]-1-[(3-methyl-2-thienyl)carbonyl]-1H-1,2,4-triazole-3,5-diamine] | > 100000 | > 1000 | 21 | 20.8 |
| Nc1nc(Nc2ccc(S(=O)(=O)Nc3ccccn3)cc2)nn1C(=O)c1c(F)cccc1F [Cpd 118, 4-[[5-amino-1-(2,6-difluorobenzoyl)-1H-1,2,4-triazol-3-yl]amino]-N-(2-pyridinyl)-benzenesulfonamide] | > 100000 | > 100000 | 330 | 330 |
| Cc1cc(C)c(C(=O)n2nc(Nc3ccc(S(=O)(=O)Nc4ccccn4)cc3)nc2N)s1 [Cpd 120] | > 100000 | > 10000 | 277 | 277 |
| Cc1ccc(F)c(C(=O)n2nc(N)nc2Nc2ccc(S(N)(=O)=O)cc2)c1F [Cpd 123, 4-[[3-amino-1-(2,6-difluoro-3-methylbenzoyl)-1H-1,2,4-triazol-5-yl]amino]-benzenesulfonamide] | > 100000 | > 100000 | 2050 | 2050 |
